Data taken from patent US10357537B2, “Cyclotides as immunosuppressive agents” (priority 2011, dated 2019).
Where two headings read alike, the source gives them in different places. Bridge positions count the residues as written; N and C are the ends. Peptide text beside a SMILES is read from it.

What was measured:
[1] = tested on: activated human primary PBMC; experiment: Anti-proliferative CFSE cell division assay on anti-CD3/CD28-activated PBMC; conditions: for IC50: read-out: IC50 (μM) ± STDEV, inhibition of PBMC proliferation, PBMCs, anti-CD3/28 mAbs, 72 h, n.a. = not active; for cytotoxicity in PBMC proliferation assay: at 14 μM
Experimental: Human peripheral blood mononuclear cells (PBMC) were isolated from the blood of healthy adult donors obtained from the Blood Transfusion Centre (University Medical Center, Freiburg, Germany). Venous blood was centrifuged on a LymphoPrep™ gradient (density: 1.077 g/cm^3, 20 min, 500×g, 20° C.; Progen, Heidelberg, Germany). Afterwards cells were washed twice with medium and cell viability and concentration was determined using the trypan blue exclusion test. PBMC were cultured in RPMI 1640 medium supplemented with 10% heat-inactivated fetal calf serum (PAA, Coelbe, Germany), 2 mM L-glutamine, 100 U/mL penicillin and […] (all from Invitrogen, Karlsruhe, Germany). The cells were cultured at 37° C. in a humidified incubator with a 5% CO2/95% air atmosphere. All experiments conducted on human material were approved by the Ethics committee of the University of Freiburg.
(§1) After cultivation, the cells were assessed in bioassays as described in the text.
For cell proliferation and cell division tracking analysis PBMC were harvested and washed twice in cold PBS and resuspended in PBS at a concentration of 5×10^6 cells/mL. Cells were incubated for 10 min at 37° C. with carboxyfluorescein diacetate succinimidyl ester (CFSE; 5 μM: Sigma-Aldrich, Taufkirchen, Germany). The staining reaction was stopped by washing twice with complete medium. Afterwards, the cell division progress was analysed using flow cytometric analysis.
(§2) The anti-proliferative effect of cyclotide mutants/variants was tested according to Example 5. […] Afterwards the cell proliferation was assessed by analysing cell division using flow cytometric-based histogram analysis.

[2] = tested on: CD3 purified T-lymphocytes; experiment: Anti-proliferative CFSE assay on magnetic-purified CD3+ lymphocytes; conditions: for IC50: read-out: IC50 (μM) ± STDEV, inhibition of CD3 purified T-lymphocyte proliferation, CD3 purified lymphocytes, anti-CD3/28 mAbs, 72 h
Experimental: as §2

[3] = tested on: activated human primary PBMC
Experimental: as §1
The levels of apoptosis were determined using the annexin V-FITC apoptosis detection kit (eBioscience, Frankfurt, Germany) according to the manufacturer's instructions. After annexin V staining, propidium iodide solution (PI; eBioscience) was added and the cells were incubated in the dark, followed by a flow cytometric analysis to determine the amount of apoptosis and necrosis. CPT (30 μg/mL) and Triton-X 100 (0.5%) was used as positive controls for apoptosis and necrosis, respectively.
Cellular apoptotic and necrotic hallmarks were measured by using inter-nucleosomal DNA fragmentation (subG1^+ cells) assay and phosphatidylserine surface analysis through a single and combinatory annexin V and propidium iodide staining. This double staining process allowed the discrimination between viable (annexin^−/PI^−), apoptotic (annexin^+/PI^− and annexin^+/PI^+) or necrotic (annexin^−/PI^+) cells.

Compound: CC[C@H](C)[C@@H]1NC(=O)[C@@H]2CCCN2C(=O)[C@H](Cc2c[nH]c3ccccc23)NC(=O)[C@H]([C@@H](C)O)NC(=O)[C@@H]2CSSC[C@@H]3NC(=O)[C@H]([C@@H](C)O)NC(=O)[C@H](CCC(=O)O)NC(=O)CNC(=O)[C@@H]4CSSC[C@H](NC(=O)CNC(=O)[C@@H]5CCCN5C(=O)[C@H]([C@@H](C)O)NC(=O)[C@H](CC(N)=O)NC(=O)[C@H](CSSC[C@H](NC1=O)C(=O)N[C@@H]([C@@H](C)O)C(=O)N[C@@H](CCCNC(=N)N)C(=O)N[C@@H](CC(=O)O)C(=O)NCC(=O)N[C@@H](CC(C)C)C(=O)N1CCC[C@H]1C(=O)N[C@@H](C(C)C)C(=O)N4)NC(=O)[C@H]([C@@H](C)O)NC(=O)CNC(=O)CNC(=O)[C@H](Cc1ccccc1)NC3=O)C(=O)N[C@@H](CO)C(=O)N2 [Kalata B2] (cyclo(CFGGTCNTPGCSCTWPICTRDGLPVCGET); disulfide 1-13, 6-18, 11-26)
- IC50 ([1]; cyclotides 1.8-14 μM): 0.2 ± 0.1 µM
- IC50 [2]: 0.6 ± 0.02 µM

Compound: CC(C)C[C@@H]1NC(=O)[C@H](CCCCN)NC(=O)[C@H](CC(N)=O)NC(=O)[C@H](CCCNC(=N)N)NC(=O)[C@H]([C@@H](C)O)NC(=O)[C@@H]2CSSC[C@@H]3NC(=O)[C@H]([C@@H](C)O)NC(=O)CNC(=O)CNC(=O)[C@H](C(C)C)NC(=O)[C@@H]4CSSC[C@H](NC(=O)[C@H](CCCCN)NC(=O)[C@H](CSSC[C@H](NC(=O)[C@H](C(C)C)NC(=O)[C@@H]5CCCN5C1=O)C(=O)NCC(=O)N[C@@H](CCC(=O)O)C(=O)N[C@@H]([C@@H](C)O)C(=O)N4)NC(=O)CNC(=O)[C@@H]1CCCN1C(=O)[C@H]([C@@H](C)O)NC(=O)[C@H](CC(N)=O)NC3=O)C(=O)N[C@@H](CO)C(=O)N[C@@H](Cc1c[nH]c3ccccc13)C(=O)N1CCC[C@H]1C(=O)N[C@@H](C(C)C)C(=O)N2 [T20K, G1K, Kalata T20K, G1K] (cyclo(CGETCVGGTCNTPGCKCSWPVCTRNKLPV); disulfide 1-15, 5-17, 10-22)
- cytotoxicity in PBMC proliferation assay [1]: (cytotoxic)
- cytotoxicity in PBMC proliferation assay ([1]; listed as T20K+G1K): cytotoxic
- cytotoxicity in CD3 purified lymphocyte proliferation assay ([2]; at 14 μM): (cytotoxic)
- IC50 [2]: 1.1 ± 0.7 µM

Compound: CC[C@@H](C)[C@H]1NC(=O)[C@H]2CCCN2C(=O)[C@@H](Cc2c[nH]c3ccccc23)NC(=O)[C@@H]([C@H](C)O)NC(=O)[C@H]2CSSC[C@H]3NC(=O)[C@@H]([C@H](C)O)NC(=O)[C@@H](CCC(=O)O)NC(=O)CNC(=O)[C@H]4CSSC[C@@H](NC(=O)CNC(=O)[C@H]5CCCN5C(=O)[C@@H]([C@H](C)O)NC(=O)[C@@H](CC(N)=O)NC(=O)[C@@H](CSSC[C@@H](NC1=O)C(=O)N[C@H]([C@H](C)O)C(=O)N[C@H](CCCNC(=N)N)C(=O)N[C@H](CC(=O)O)C(=O)NCC(=O)N[C@H](CC(C)C)C(=O)N1CCC[C@@H]1C(=O)N[C@H](C(C)C)C(=O)N4)NC(=O)[C@@H]([C@H](C)O)NC(=O)CNC(=O)CNC(=O)[C@@H](Cc1ccccc1)NC3=O)C(=O)N[C@H](CO)C(=O)N2 [all-D kalata B2, D-kalataB2]
- IC50 ([1]; cyclotides 1.8-14 μM): 2.3 ± 0.8 µM
- IC50 [2]: 2.9 ± 0.4 µM

Compound: CC[C@H](C)[C@H](NC(=O)CN)C(=O)NCC(=O)N[C@@H](C)C(=O)N[C@H](C(=O)N[C@@H](CC(C)C)C(=O)N[C@@H](CCCCN)C(=O)N[C@H](C(=O)N[C@@H](CC(C)C)C(=O)N[C@H](C(=O)N[C@H](C(=O)NCC(=O)N[C@@H](CC(C)C)C(=O)N1CCC[C@H]1C(=O)N[C@@H](C)C(=O)N[C@@H](CC(C)C)C(=O)N[C@H](C(=O)N[C@@H](CO)C(=O)N[C@@H](Cc1c[nH]c2ccccc12)C(=O)N[C@H](C(=O)N[C@@H](CCCCN)C(=O)N[C@@H](CCCNC(=N)N)C(=O)N[C@@H](CCCCN)C(=O)N[C@@H](CCCNC(=N)N)C(=O)N[C@@H](CCC(N)=O)C(=O)N[C@@H](CCC(N)=O)C(N)=O)[C@@H](C)CC)[C@@H](C)CC)[C@@H](C)O)[C@@H](C)O)C(C)C)C(C)C [melittin]
- cell division / proliferation of activated PBMC (in words) ([1]; CFSE, flow cytometry, extract 50-100 μg/mL, cyclotides 1.8-14 μM, melittin 0.05-1.6 μM): decrease of proliferating PBMC at 1.6 μM
- induction of necrosis ([3]; kalata B1 14 μM vs untreated control, Triton-X 100, melittin high concentrations): slight effect on necrosis induction at high concentrations
- induction of apoptosis ([3]; kalata B1 1.8-14 μM, CPT 30 μg/mL, melittin up to 1.6 μM): mainly due to the induction of apoptosis

Compound: Triton-X 100
- induction of necrosis [3]: significantly increased the fractions of these cells
